Patent US20180126014A1, “COMPOSITIONS FOR ENHANCING DELIVERY OF AGENTS ACROSS THE BLOOD BRAIN BARRIER AND METHODS OF USE THEREOF” (Yale University, priority 2015, published 2018)

Assays:
[1] = test system: intracranial GL261 tumors; conditions: NPs co-loaded with IR780 and BBB modulator, three consecutive days, imaged 24 h after last injection
Description: For the intracranial GL261 tumor implantation, 5-6 week old female C57BL6 mice were anesthetized via intraperitoneal injection of ketamine hydrochloride (75 mg/kg, Abbot Laboratories) and xylazine (7.5 mg/kg, Phoenix Pharmaceutical) in sterile saline. Twenty thousand GL261 cells in 2 μL of PBS were injected into the right striatum (1.8 mm lateral to the bregma and 3 mm of depth) using a stereotactic fixation device with mouse adaptor. For the subcutaneous GL261 xenograft model, 1×10^6 GL261 cells in 100 μL of PBS were inoculated subcutaneously into the right flank region of female C57BL6 mice. For the intracranial U87-MG glioma model, 1×10^6 U87-MG cells in 2 μL of PBS was injected into the right striatum of BALB/c nude mice using the same procedures.
(§1) Then the hair on the head was shaved and mice were anesthetized and imaged using the IVIS fluorescence imaging system on day 20. Finally, mice were sacrificed and organs resected for further imaging.
At 24 h after the last injection, the hair on the head was shaved and mice were anesthetized and imaged using an IVIS imaging system (Xenogen). Finally, mice were sacrificed and organs resected for further imaging. The fluorescence signal intensity of excised organs was quantified using Living Image 3.0.
as §1

[2] = target: T1, A1 adenosine receptor (Homo sapiens, UniProt P30542); conditions: cited from earlier work
T1 sequence (P30542 1-326): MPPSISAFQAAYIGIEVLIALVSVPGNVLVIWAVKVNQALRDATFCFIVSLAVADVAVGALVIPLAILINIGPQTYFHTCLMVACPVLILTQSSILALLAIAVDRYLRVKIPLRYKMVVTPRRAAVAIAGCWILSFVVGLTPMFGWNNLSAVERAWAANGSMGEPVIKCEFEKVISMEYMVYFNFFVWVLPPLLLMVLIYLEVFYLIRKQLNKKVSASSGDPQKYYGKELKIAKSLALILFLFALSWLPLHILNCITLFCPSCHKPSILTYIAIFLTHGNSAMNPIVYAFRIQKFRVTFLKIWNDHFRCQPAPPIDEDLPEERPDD

[3] = target: T2, A3 adenosine receptor (Homo sapiens, UniProt P0DMS8); conditions: cited from earlier work
T2 sequence (P0DMS8 1-318): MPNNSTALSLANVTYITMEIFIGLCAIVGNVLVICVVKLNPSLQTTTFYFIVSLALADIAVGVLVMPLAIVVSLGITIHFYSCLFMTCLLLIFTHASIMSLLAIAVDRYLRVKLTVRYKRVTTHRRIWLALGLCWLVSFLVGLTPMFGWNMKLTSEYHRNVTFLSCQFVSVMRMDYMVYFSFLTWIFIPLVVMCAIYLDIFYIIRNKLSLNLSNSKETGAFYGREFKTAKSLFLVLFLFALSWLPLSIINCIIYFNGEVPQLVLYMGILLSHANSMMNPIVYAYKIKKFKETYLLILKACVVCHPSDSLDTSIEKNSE

[4] = target: T3, A2B adenosine receptor (Homo sapiens, UniProt P29275); conditions: cited from earlier work
T3 sequence (P29275 1-332): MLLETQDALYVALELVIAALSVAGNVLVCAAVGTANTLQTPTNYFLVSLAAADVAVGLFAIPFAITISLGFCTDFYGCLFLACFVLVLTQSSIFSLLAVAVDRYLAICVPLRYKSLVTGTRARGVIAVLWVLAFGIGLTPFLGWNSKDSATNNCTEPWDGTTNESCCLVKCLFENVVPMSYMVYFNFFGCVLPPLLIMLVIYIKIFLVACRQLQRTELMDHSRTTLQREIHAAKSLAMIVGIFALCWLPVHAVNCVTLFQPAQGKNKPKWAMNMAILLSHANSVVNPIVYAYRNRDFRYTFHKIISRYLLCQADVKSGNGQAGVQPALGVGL

[5] = test system: MDA-MB-231Br brain metastases; experiment: Paclitaxel-loaded ABTT NPs in MDA-MB-231Br derived brain metastasis model; format: in vivo, mice; conditions: three times a week for three weeks
Description: Nanoparticles were prepared similarly to those described above for Examples 1 and 6, but including the CTX targeting moiety as described in Example 6. […] Briefly, for synthesis of paclitaxel-loaded NPs, 100 mg mIII-62% in 2 mL DCM containing 2.5 mg LEXISCAN® and 20 mg paclitaxel was added dropwise to 4 mL 2.5% PVA under vortex and sonicated to form a oil/water emulsion. The emulsion was poured into a beaker containing 0.3% PVA and stirred for 3 h to evaporate DCM. NPs were collected by centrifugation at 20000 rpm for 30 min. The precipitate was suspended in PBS and reacted with thiolated CTX […] at room temperature. Nanoparticles were collected, suspended in H2O and lyophilized for storage and characterization.
In both studies, mice were treated with nanoparticles for three times a week for three weeks at a dose of 2 mg/mouse. It is believed that enhanced efficacy can be achieved with a higher dose treatment (maximum tolerated dose >15 mg per treatment) or with extended treatment time.

CCNC(=O)[C@H]1O[C@@H](n2cnc3c(N)ncnc32)[C@H](O)[C@@H]1O [NECA, 1-(6-Amino-9H-purin-9-yl)-1-deoxy-N-ethyl-β-D-ribofuranuronamide]
delivery of CTX-mHph2-III-62% NPs to the brain with encapsulated BBB modulator [1]: significantly enhanced delivery

CNC(=O)c1cnn(-c2nc(N)c3ncn([C@@H]4O[C@H](CO)[C@@H](O)[C@H]4O)c3n2)c1 [Regadenoson, 2-{4-[(methylamino)carbonyl]-1H-pyrazol-1-yl}adenosine]
Ki [2]: > 16.5 µM
lower affinity for the A1 adenosine receptor than for A2A [2]: at least 10 fold
affinity [3]: weak, if any
delivery of CTX-mHph2-III-62% NPs to the brain with encapsulated BBB modulator [1]: significantly enhanced delivery
affinity [4]: weak, if any

CC(=O)O[C@H]1C(=O)[C@@]2(C)[C@H]([C@H](OC(=O)c3ccccc3)[C@]3(O)C[C@H](OC(=O)[C@H](O)[C@@H](NC(=O)c4ccccc4)c4ccccc4)C(C)=C1C3(C)C)[C@]1(OC(C)=O)CO[C@@H]1C[C@@H]2O [free paclitaxel, paclitaxel]
median survival time [5]: 45 days

Nc1cc(N2CCCCC2)nc(N)[n+]1[O-] [minoxidil]
delivery of CTX-mHph2-III-62% NPs to the brain with encapsulated BBB modulator [1]: significantly enhanced delivery
